Measurements: ChEMBL document CHEMBL5143746, “SJPYT-195: A Designed Nuclear Receptor Degrader That Functions as a Molecular Glue Degrader of GSPT1” (ACS Med Chem Lett, 2022)
Active and inactive are the calls of the source. The calls are words filed in the database; no cut-off is given here.

Key:
[1] = molecular target: T1, Protein cereblon/Peptidyl-prolyl cis-trans isomerase FKBP1A/Nuclear receptor subfamily 1 group I member 2 (Homo sapiens, UniProt P62942+O75469+Q96SW2, F37V); assay: Molecular glue activity at HA-tagged CLR4-CRBN/2HA-tagged PXR fused HiBiT-tagged FKBP12 (F36V) mutant (unknown origin) expressed in HepG2 cells assessed as induction of PXR degradation measured after 24 hrs by Nano-Glo HiBiT assay; format: cell-based; conditions: hepg2, 24 h
T1 sequence (P62942 2-108 F37V limits assumed, stated change not applied, one chain of several): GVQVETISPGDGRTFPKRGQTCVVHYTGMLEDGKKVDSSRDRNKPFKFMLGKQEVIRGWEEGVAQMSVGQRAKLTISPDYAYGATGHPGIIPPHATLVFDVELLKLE
T1 sequence (Q96SW2 whole entry, stated change not applied, one chain of several, the tested form may be a part): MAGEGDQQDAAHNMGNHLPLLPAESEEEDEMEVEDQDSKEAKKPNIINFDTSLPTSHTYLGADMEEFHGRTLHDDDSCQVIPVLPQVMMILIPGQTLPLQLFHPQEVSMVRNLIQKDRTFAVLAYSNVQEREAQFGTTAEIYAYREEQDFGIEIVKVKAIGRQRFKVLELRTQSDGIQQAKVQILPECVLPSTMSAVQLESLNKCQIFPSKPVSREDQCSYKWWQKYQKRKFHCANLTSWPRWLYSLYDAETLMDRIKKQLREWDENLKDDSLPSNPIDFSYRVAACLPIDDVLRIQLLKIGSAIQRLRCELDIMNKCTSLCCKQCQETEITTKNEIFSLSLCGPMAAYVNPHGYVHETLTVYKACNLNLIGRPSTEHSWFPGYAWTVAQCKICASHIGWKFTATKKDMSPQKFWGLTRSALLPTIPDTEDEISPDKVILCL

HepG2 [2] = assay: Binding affinity to 2HA-tagged PXR fused HiBiT-tagged FKBP12 (F36V) mutant (unknown origin) expressed in HepG2 cells assessed as change in FKBP-PXR expression at 0.0001 uM measured after 24 hrs by Western blot analysis relative to control; format: cell-based; conditions: Homo sapiens
HepG2 [3] = assay: Binding affinity to 2HA-tagged PXR fused HiBiT-tagged FKBP12 (F36V) mutant (unknown origin) expressed in HepG2 cells assessed as change in FKBP-PXR expression at 0.001 uM measured after 24 hrs by Western blot analysis relative to control; format: cell-based; conditions: Homo sapiens
HepG2 [4] = assay: Binding affinity to 2HA-tagged PXR fused HiBiT-tagged FKBP12 (F36V) mutant (unknown origin) expressed in HepG2 cells assessed as change in FKBP-PXR expression at 0.01 uM measured after 24 hrs by Western blot analysis relative to control; format: cell-based; conditions: Homo sapiens
HepG2 [5] = assay: Binding affinity to 2HA-tagged PXR fused HiBiT-tagged FKBP12 (F36V) mutant (unknown origin) expressed in HepG2 cells assessed as change in FKBP-PXR expression at 0.1 uM measured after 24 hrs by Western blot analysis relative to control; format: cell-based; conditions: Homo sapiens
HepG2 [6] = assay: Binding affinity to 2HA-tagged PXR fused HiBiT-tagged FKBP12 (F36V) mutant (unknown origin) expressed in HepG2 cells assessed as change in FKBP-PXR expression at 1 uM measured after 24 hrs by Western blot analysis relative to control; format: cell-based; conditions: Homo sapiens
HepG2 [7] = assay: Binding affinity to 2HA-tagged PXR fused HiBiT-tagged FKBP12 (F36V) mutant (unknown origin) expressed in HepG2 cells assessed as change in FKBP-PXR expression at 10 uM measured after 24 hrs by Western blot analysis relative to control; format: cell-based; conditions: Homo sapiens
[8] = molecular target: T1, Protein cereblon/Peptidyl-prolyl cis-trans isomerase FKBP1A/Nuclear receptor subfamily 1 group I member 2; assay: (§1) Molecular glue activity at HA-tagged […]/2HA-tagged PXR fused HiBiT-tagged FKBP12 (F36V) mutant (unknown origin) expressed in HepG2 cells assessed as induction of PXR degradation by measuring change in FKBP-PXR expression at 0.0001 uM measured after 24 hrs by Western blot analysis relative to control; format: cell-based; conditions: hepg2, 24 h
[9] = molecular target: T1, Protein cereblon/Peptidyl-prolyl cis-trans isomerase FKBP1A/Nuclear receptor subfamily 1 group I member 2; assay: as §1, with “0.001” for “0.0001”; format: cell-based; conditions: hepg2, 24 h
[10] = molecular target: T1, Protein cereblon/Peptidyl-prolyl cis-trans isomerase FKBP1A/Nuclear receptor subfamily 1 group I member 2; assay: as §1, with “0.01” for “0.0001”; format: cell-based; conditions: hepg2, 24 h
[11] = molecular target: T1, Protein cereblon/Peptidyl-prolyl cis-trans isomerase FKBP1A/Nuclear receptor subfamily 1 group I member 2; assay: as §1, with “0.1” for “0.0001”; format: cell-based; conditions: hepg2, 24 h
[12] = molecular target: T1, Protein cereblon/Peptidyl-prolyl cis-trans isomerase FKBP1A/Nuclear receptor subfamily 1 group I member 2; assay: as §1, with “1” for “0.0001”; format: cell-based; conditions: hepg2, 24 h
[13] = molecular target: T1, Protein cereblon/Peptidyl-prolyl cis-trans isomerase FKBP1A/Nuclear receptor subfamily 1 group I member 2; assay: as §1, with “10” for “0.0001”; format: cell-based; conditions: hepg2, 24 h
[14] = molecular target: T1, Protein cereblon/Peptidyl-prolyl cis-trans isomerase FKBP1A/Nuclear receptor subfamily 1 group I member 2; assay: as §1, with “CRBN” for “FKBP-PXR”; format: cell-based; conditions: hepg2, 24 h
[15] = molecular target: T1, Protein cereblon/Peptidyl-prolyl cis-trans isomerase FKBP1A/Nuclear receptor subfamily 1 group I member 2; assay: as §1, with “CRBN” for “FKBP-PXR”, “0.001” for “0.0001”; format: cell-based; conditions: hepg2, 24 h
[16] = molecular target: T1, Protein cereblon/Peptidyl-prolyl cis-trans isomerase FKBP1A/Nuclear receptor subfamily 1 group I member 2; assay: as §1, with “CRBN” for “FKBP-PXR”, “0.01” for “0.0001”; format: cell-based; conditions: hepg2, 24 h
[17] = molecular target: T1, Protein cereblon/Peptidyl-prolyl cis-trans isomerase FKBP1A/Nuclear receptor subfamily 1 group I member 2; assay: Molecular glue activity at HA-tagged […]/2HA-tagged PXR fused HiBiT-tagged FKBP12 (F36V) mutant (unknown origin) expressed in HepG2 cells assessed as induction of PXR degradation by measuring change in CRBN expression at 0.1 uM measured after 24 hrs by Western blot analysis relative to control; format: cell-based; conditions: hepg2, 24 h
[18] = molecular target: T1, Protein cereblon/Peptidyl-prolyl cis-trans isomerase FKBP1A/Nuclear receptor subfamily 1 group I member 2; assay: Molecular glue activity at HA-tagged […]/2HA-tagged PXR fused HiBiT-tagged FKBP12 (F36V) mutant (unknown origin) expressed in HepG2 cells assessed as induction of PXR degradation by measuring change in CRBN expression at 1 uM measured after 24 hrs by Western blot analysis relative to control; format: cell-based; conditions: hepg2, 24 h
[19] = molecular target: T1, Protein cereblon/Peptidyl-prolyl cis-trans isomerase FKBP1A/Nuclear receptor subfamily 1 group I member 2; assay: Molecular glue activity at HA-tagged […]/2HA-tagged PXR fused HiBiT-tagged FKBP12 (F36V) mutant (unknown origin) expressed in HepG2 cells assessed as induction of PXR degradation by measuring change in CRBN expression at 10 uM measured after 24 hrs by Western blot analysis relative to control; format: cell-based; conditions: hepg2, 24 h
[20] = molecular target: Protein cereblon/DNA damage-binding protein 1 (Homo sapiens, UniProt Q96SW2); assay: Displacement of BODIPY FL thalidomide from 6His-tagged CRBN/DDB1 (unknown origin) expressed in baculovirus infected Sf9 insect cells incubated for 1 min under shaking condition followed by 60 mins incubation under dark condition by TR-FRET assay
Protein cereblon/DNA damage-binding protein 1, sequence (Q96SW2 whole entry): as the sequence (Q96SW2 whole entry, stated change not applied, one chain of several, the tested form may be a part) above
Protein cereblon/DNA damage-binding protein 1, sequence (Q16531 whole entry, further chain): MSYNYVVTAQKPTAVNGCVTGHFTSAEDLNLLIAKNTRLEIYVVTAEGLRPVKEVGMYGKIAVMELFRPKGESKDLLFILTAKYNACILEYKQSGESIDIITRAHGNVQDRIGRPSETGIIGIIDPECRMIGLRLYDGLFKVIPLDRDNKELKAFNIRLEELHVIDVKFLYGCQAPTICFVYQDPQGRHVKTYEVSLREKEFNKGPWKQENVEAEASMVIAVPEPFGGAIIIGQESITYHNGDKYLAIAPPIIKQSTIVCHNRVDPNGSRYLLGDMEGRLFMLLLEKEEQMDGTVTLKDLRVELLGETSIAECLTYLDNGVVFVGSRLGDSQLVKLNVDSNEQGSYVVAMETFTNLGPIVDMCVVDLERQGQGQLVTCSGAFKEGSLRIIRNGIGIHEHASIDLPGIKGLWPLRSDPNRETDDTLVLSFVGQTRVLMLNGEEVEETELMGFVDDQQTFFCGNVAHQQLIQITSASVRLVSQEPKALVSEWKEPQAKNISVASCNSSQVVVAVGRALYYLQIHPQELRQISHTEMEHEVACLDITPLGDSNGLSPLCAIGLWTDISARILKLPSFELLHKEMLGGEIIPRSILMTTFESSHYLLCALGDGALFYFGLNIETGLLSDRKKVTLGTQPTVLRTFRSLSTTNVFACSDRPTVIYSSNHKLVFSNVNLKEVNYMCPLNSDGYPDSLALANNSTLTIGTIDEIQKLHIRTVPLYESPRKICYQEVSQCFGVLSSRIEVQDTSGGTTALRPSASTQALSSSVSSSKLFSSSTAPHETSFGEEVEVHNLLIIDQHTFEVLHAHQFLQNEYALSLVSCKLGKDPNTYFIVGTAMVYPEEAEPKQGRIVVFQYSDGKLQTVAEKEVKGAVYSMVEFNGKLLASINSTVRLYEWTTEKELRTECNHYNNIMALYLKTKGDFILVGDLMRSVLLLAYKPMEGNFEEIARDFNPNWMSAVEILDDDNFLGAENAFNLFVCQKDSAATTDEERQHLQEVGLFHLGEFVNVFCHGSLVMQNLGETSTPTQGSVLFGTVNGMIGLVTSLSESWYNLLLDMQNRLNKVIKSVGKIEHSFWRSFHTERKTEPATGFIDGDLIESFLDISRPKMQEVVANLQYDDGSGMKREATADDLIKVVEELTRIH

[21] = molecular target: T2, Nuclear receptor subfamily 1 group I member 2 (Homo sapiens, UniProt O75469); assay: Induction of PXR degradation in PXR knock in human SNU-C4 cells at 10 uM measured after 2 to 48 hrs by Western blot analysis; format: cell-based; conditions: snu-c4, 10 µM, time 2-48 hrs
T2 sequence (O75469 whole entry): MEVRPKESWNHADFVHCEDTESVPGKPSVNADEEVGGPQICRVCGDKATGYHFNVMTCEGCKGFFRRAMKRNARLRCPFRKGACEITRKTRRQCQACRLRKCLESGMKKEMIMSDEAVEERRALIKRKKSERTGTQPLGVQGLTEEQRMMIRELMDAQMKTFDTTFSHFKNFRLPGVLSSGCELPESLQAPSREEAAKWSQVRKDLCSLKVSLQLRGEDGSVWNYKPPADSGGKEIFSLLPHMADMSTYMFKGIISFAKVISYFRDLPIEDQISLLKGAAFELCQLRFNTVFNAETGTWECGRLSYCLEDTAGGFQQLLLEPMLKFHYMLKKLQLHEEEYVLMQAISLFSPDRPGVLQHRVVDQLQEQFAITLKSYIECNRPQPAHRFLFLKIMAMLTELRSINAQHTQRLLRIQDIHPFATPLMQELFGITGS

SNU-C4 [22] = assay: Down regulation of PXR mRNA expression in PXR knock in human SNU-C4 cells at 10 uM measured after 2 to 48 hrs by RT-qPCR analysis; format: functional, cell-based; conditions: time 2-48 hrs
[23] = molecular target: T2, Nuclear receptor subfamily 1 group I member 2; assay: Induction of PXR degradation in PXR knock in human SNU-C4 cells at 5 uM measured after 12 hrs by Western blot analysis relative to control; format: cell-based; conditions: snu-c4, 12 h
SNU-C4 [24] = assay: […] of GSPT1 expression in PXR knock in human SNU-C4 cells at 5 uM measured after 12 hrs by TMT-MS analysis; format: functional, cell-based
SNU-C4 [25] = assay: […] of GSPT2 expression in PXR knock in human SNU-C4 cells at 5 uM measured after 12 hrs by TMT-MS analysis; format: functional, cell-based
SNU-C4 [26] = assay: […] of ZFP91 expression in PXR knock in human SNU-C4 cells at 5 uM measured after 12 hrs by TMT-MS analysis; format: functional, cell-based
SNU-C4 [27] = assay: Up regulation of CYP1A1 expression in PXR knock in human SNU-C4 cells at 5 uM measured after 12 hrs by TMT-MS analysis; format: functional, cell-based
SNU-C4 [28] = assay: Up regulation of BRIP1 expression in PXR knock in human SNU-C4 cells at 5 uM measured after 12 hrs by TMT-MS analysis; format: functional, cell-based
SNU-C4 [29] = assay: Down regulation of FOS expression in PXR knock in human SNU-C4 cells at 5 uM measured after 12 hrs by TMT-MS analysis; format: functional, cell-based
[30] = molecular target: Eukaryotic peptide chain release factor GTP-binding subunit ERF3A (Homo sapiens) (UniProt P15170); assay: Induction of GSPT1 degradation in PXR knock in human SNU-C4 cells at 0.001 to 10 uM measured after 24 hrs by Western blot analysis; format: cell-based; conditions: dose 0.001-10 µM
Eukaryotic peptide chain release factor GTP-binding subunit ERF3A (Homo sapiens), sequence (P15170 whole entry): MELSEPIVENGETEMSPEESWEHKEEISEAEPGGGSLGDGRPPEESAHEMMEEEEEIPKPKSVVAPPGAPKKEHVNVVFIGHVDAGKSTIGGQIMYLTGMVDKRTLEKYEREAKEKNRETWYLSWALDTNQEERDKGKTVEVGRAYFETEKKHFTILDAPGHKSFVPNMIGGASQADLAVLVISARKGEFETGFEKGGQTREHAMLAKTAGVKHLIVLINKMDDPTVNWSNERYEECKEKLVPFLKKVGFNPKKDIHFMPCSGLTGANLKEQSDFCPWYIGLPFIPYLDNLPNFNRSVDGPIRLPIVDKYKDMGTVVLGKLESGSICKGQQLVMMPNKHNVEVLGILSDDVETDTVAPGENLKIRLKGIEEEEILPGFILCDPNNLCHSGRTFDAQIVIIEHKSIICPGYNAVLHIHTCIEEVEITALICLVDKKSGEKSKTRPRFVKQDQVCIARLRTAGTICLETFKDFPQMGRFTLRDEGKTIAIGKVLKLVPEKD

SNU-C4 [31] = assay: Cytotoxicity against PXR knock in human SNU-C4 cells measured after 72 hrs by celltiter-glo assay; format: functional
[32] = molecular target: T2, Nuclear receptor subfamily 1 group I member 2; assay: Induction of PXR degradation in PXR knock in human SNU-C4 cells at 0.0001 to 1 uM measured after 24 hrs by Western blot analysis; format: cell-based; conditions: snu-c4, 24 h, dose 0.0001-1 µM

CC[C@H](C(=O)N1CCCC[C@H]1C(=O)O[C@H](CCc1ccc(OC)c(OC)c1)c1ccccc1OCC(=O)NCCCCCCOc1cccc2c1C(=O)N(C1CCC(=O)NC1=O)C2=O)c1cc(OC)c(OC)c(OC)c1 (some centres undefined)
Activity [1]: Active
fold change (FC) (HepG2 [2]): 1.1
fold change (FC) (HepG2 [3]): 1.3
fold change (FC) (HepG2 [4]): 1.2
fold change (FC) (HepG2 [5]): 1.1
fold change (FC) (HepG2 [6]): 0.9
fold change (FC) (HepG2 [7]): 1
fold change (FC) [8]: 0.8
fold change (FC) [9]: 0.7
fold change (FC) [10]: 0.5
fold change (FC) [11]: 0.5
fold change (FC) [12]: 0.8
fold change (FC) [13]: 1.4
fold change (FC) [14]: 0.9
fold change (FC) [15]: 0.9
fold change (FC) [16]: 1.1
fold change (FC) [17]: 1.3
fold change (FC) [18]: 2.2
fold change (FC) [19]: 3.6

COc1ccc(OC)c(-n2nnc(C(=O)Nc3cc(OC(=O)CNc4cccc5c4C(=O)N(C4CCC(=O)NC4=O)C5=O)cc(C(C)(C)C)c3)c2C)c1 (centres undefined)
EC50 [20]: 17 nM

CC(=O)Nc1cc(Nc2cccc3c2C(=O)N(C2CCC(=O)NC2=O)C3=O)cc(C(C)(C)C)c1 (centres undefined)
EC50 [20]: 3.2 nM

COc1ccc(OC)c(-n2nnc(C(=O)Nc3cc(OCCNc4cccc5c4C(=O)N(C4CCC(=O)NC4=O)C5=O)cc(C(C)(C)C)c3)c2C)c1 (centres undefined)
EC50 [20]: 23 nM

COc1ccc(OC)c(-n2nnc(S(=O)(=O)c3ccc(C(C)(C)C)cc3)c2C)c1
EC50 [20]: > 3000 nM

COc1ccc(OC)c(-n2nnc(C(=O)Nc3cc(Oc4cccc5c4C(=O)N(C4CCC(=O)NC4=O)C5=O)cc(C(C)(C)C)c3)c2C)c1 (centres undefined)
Activity ([1]; DDE = dose-dependent effect): Dde
Activity [21]: Active
Activity (SNU-C4 [22]): Active
Activity [23]: 50%
Activity (SNU-C4 [24]): Active
Activity (SNU-C4 [25]): Active
Activity (SNU-C4 [26]): Active
Activity (SNU-C4 [27]): Active
Activity (SNU-C4 [28]): Active
Activity (SNU-C4 [29]): Active
Activity [30]: Active
CC50 (SNU-C4 [31]): 3.3 nM
EC50 [20]: 31 nM

CC(C)(C)c1cc(N)cc(Oc2cccc3c2C(=O)N(C2CCC(=O)NC2=O)C3=O)c1 (centres undefined)
EC50 [20]: 14 nM

CC(=O)Nc1cc(Oc2cccc3c2C(=O)N(C2CCC(=O)NC2=O)C3=O)cc(C(C)(C)C)c1 (centres undefined)
EC50 [20]: 11 nM

COc1ccc(OC)c(-n2nnc(C(=O)Nc3cc(OCC(=O)Nc4cccc5c4C(=O)N(C4CCC(=O)NC4=O)C5=O)cc(C(C)(C)C)c3)c2C)c1 (centres undefined)
EC50 [20]: > 333 nM

COc1ccc(OC)c(-n2nnc(C(=O)Nc3cc(NC(=O)Nc4cccc5c4C(=O)N(C4CCC(=O)NC4=O)C5=O)cc(C(C)(C)C)c3)c2C)c1 (centres undefined)
EC50 [20]: 410 nM

Cc1ccc(NC(=O)NCc2ccc3c(c2)CN(C2CCC(=O)NC2=O)C3=O)cc1Cl (centres undefined)
Activity [32]: Active
CC50 (SNU-C4 [31]): 440 nM

COc1ccc(OC)c(-n2nnc(C(=O)Nc3cc(NCCNc4cccc5c4C(=O)N(C4CCC(=O)NC4=O)C5=O)cc(C(C)(C)C)c3)c2C)c1 (centres undefined)
EC50 [20]: 24 nM

COc1ccc(OC)c(-n2nnc(C(=O)Nc3cc(NC(=O)CNc4cccc5c4C(=O)N(C4CCC(=O)NC4=O)C5=O)cc(C(C)(C)C)c3)c2C)c1 (centres undefined)
EC50 [20]: 15 nM
